According to patent publication US20240131032A1, “AN ACTIVITY-GUIDED MAP OF ELECTROPHILE-CYSTEINE INTERACTIONS IN PRIMARY HUMAN IMMUNE CELLS” (The Scripps Research Institute, priority 2019, published 2024):

Target: T1, TMEM173 (Homo sapiens, UniProt Q86WV6, G230A/H232R/R293Q/R71H)
T1 construct: endogenous in cells; host or cells: THP-1 Lucia ISG cells
Test: ISRE-luciferase assay in THP-1 Lucia ISG cells
Type: cell-based
Conditions: 24 h
Experimental: FIG. 12A is a pie chart showing the fraction of protein targets of active compounds with available crystal structures containing the corresponding liganded cysteine residues. FIG. 12B is a computer-generated model of BPK-21 and BPK-25 interactions with C91 of stimulator of interferon genes protein (STING, or TMEM173). FIG. 12C is a graph of IRF response of THP1-Lucia™ ISG cells. THP-1 Lucia ISG cells were treated with DMSO or BPK-25 in the presence of viral dsDNA (2 μg/mL) for 24 h and the levels of IRF-induced Lucia luciferase were determined using QUANTI-Luc™. Cell viability was measured using CellTiter-Glo™ assay. Luminescence signals for test samples were normalized to DMSO-treated samples and reported as relative light units (RLU)±SEM; n=3/group. […] Relative expression of IL-6, IL-1β, and IP10 (CXCL10) genes was measured by qPCR and normalized to actin. […] GFP-positive cells were further analyzed for CD25 and CD69 expression levels by measuring mean fluorescence intensity of the PE- (PE-CD25) and APC-channels (APC-CD69). […]
THP-1 Lucia ISG cells were resuspended in low-serum growth media (2% FBS) at a density of 5×10^5 cells/mL and treated with BPK-25 or vehicle (DMSO) in the presence of viral dsDNA (2 μg/mL). […] For each cell type and assay, luminescence signals for test article samples were normalized to vehicle-treated samples and reported as relative light units (RLU).

T1 sequence (Q86WV6 whole entry R71H/G230A/H232R/R293Q): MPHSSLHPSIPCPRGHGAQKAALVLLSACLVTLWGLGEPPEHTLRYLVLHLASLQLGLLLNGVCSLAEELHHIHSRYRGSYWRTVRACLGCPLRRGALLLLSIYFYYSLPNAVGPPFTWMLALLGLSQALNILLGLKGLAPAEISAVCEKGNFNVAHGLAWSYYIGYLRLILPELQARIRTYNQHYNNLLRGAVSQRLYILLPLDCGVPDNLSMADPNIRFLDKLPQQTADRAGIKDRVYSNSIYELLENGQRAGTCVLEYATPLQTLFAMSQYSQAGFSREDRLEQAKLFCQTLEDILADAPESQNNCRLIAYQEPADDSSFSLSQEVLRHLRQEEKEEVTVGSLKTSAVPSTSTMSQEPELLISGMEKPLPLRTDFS

SMILES: C=CC(=O)N(Cc1cccc(Cl)n1)c1ccc(C(=O)Nc2ccccc2)nc1 [BPK-25]
- TMEM173 activation in human monocyte cell line THP1: inhibited TMEM173 activation
